Measurements from patent publication US20130059324A1, “SYSTEMS AND METHODS FOR MECHANICALLY STRAINED CELL CULTURE” (THE UNIVERSITY OF KANSAS, priority 2010, published 2013).

What was measured:
H358 cells [1] = experiment: Prototype 96-well plate, viable cell count (Vi-Cell) with and without mechanical forces; assay type: cell-based, human
Description: (§3) After allowing the cells to adhere to the flexible membrane of the 96 well plate for 24 hours, the loading pins and the system described in FIG. 7 to implement mechanical strain were used to deliver 20% maximum strain for 2 seconds to the plate assigned for mechanical forces (+M Group), followed by 2 seconds of rest (15 cycles per minute with an average strain of 10% per cycle) in keeping with a normal human respiration.
In a parallel experiments, the cells were treated with anti-tumor drug after 72 hours of initial seeding (after 48 hours of mechanical stretching). The drug was dissolved in dimethyl sulfoxide (DMSO) at stock concentration and added to the respective media. An aliquot of 50 μl of drug stock solution was added to the well containing 100 μl of media (a 1:3 dilution) in a drug plate to get the desired IC90 concentration of the drug (Table 1). The IC90 concentrations of the drugs were then added to prototype plate.
(§4) The +M Group was subjected to continuous mechanical stretching while the −M Group plate was placed in the same incubator for additional 24 hours.
In order to quantify viability, 6 wells per treatment group for ViCell counter and 6 wells per condition for MTS were assigned to determine the cell viability. Using Vi-Cell counter, assigned wells were filled with extra 210 μl of media to keep the volume constant in all the wells.

NCI-H358 cells = experiment: Drug exposure with or without simulated forces, 6-well Bioflex plates, live cell count and exponential growth model; assay type: cell-based, human
Description: Treatments 1, 2 and 3 served as unstretched controls for Treatments 4, 5 and 6, respectively. For each cell line and drug, all treatments were independently repeated at least 3 times on different days, with 3 replicates per Treatments 1 and 4 (n=9) and 5 replicates per all other treatments (n=15).
The NCI-H358 (ATCC® CRL-5807) and A549 (ATCC® CCL-185) cell lines were obtained from American Type Culture Collection (ATCC, Manassas, Va.) and cultured in RPMI-1640 (NCI-H358) and HAM's F12K (A549) media containing 10% Fetal Bovine Serum (Sigma Aldrich, St. Louis, Mo.) and 1% Penicillin Streptomycin (Sigma Aldrich). Cells were passaged in 75 cm2 culture flasks at 37° C. in 5% CO2, and trypsinized using TryplE™ Express (Gibco) containing phenol red.
Cells were plated in 6-well Bioflex® plates (Flexcell® International Corporation, Hillsborough, N.C.). Each well of the plate has a flexible elastic membrane coated with a thin layer of type I collagen. Type I collagen was chosen since it more accurately represents the physiology of lung tumor cells in vivo. The Flexcell is not configured for drug studies as described herein, and had to be modified as described herein. […] Therefore, to have the same number of cells in culture at the time of drug exposure, initial seeding densities for treatments not involving simulated forces (Treatments 1-3) and those involving forces (Treatments 4-6) were adjusted for each cell line. In Treatments 1, 2 and 3, NCI-H358 and A549 cells were plated at a density of 100,000 and 20,000 cells/well in 2 ml of corresponding media, respectively. For treatments involving simulated forces (Treatments 4-6), NCI-H358 and A549 cells were plated at a density of 170,000 and 35,000 cells/well, respectively.
After allowing the cells to adhere to the membrane for 24 hours, the plates assigned for simulated forces were stretched using the FX-4000 Tension plus unit (Flexcell® International Corporation, Hillsborough, N.C.). The Flexcell unit was configured to deliver an alternating positive and negative pressure beneath the cell culture surfaces. Negative pressure pulls the culture surface down over a stationary Delrin post on the baseplate, delivering a uniform biaxial strain to the cells, and subsequent application of positive pressure releases this distension (FIGS. 9A and 9B.) In this manner, the alternating positive and negative pressure simulates forces experienced during respiration. Culture plates experiencing forces were fitted with rubber gaskets and placed on circular loading stations in the baseplate. […] Cells were preconditioned with mechanical forces for 48 hours, in an incubator at 37° C., 5% CO2 and 95% relative humidity.
(§1) After 72 hours of initial seeding, one of the five drugs was added to Treatments 3 and 6 of each cell line. […] The IC90, concentration of the drug that inhibits the growth of 90% of the cells in a static monolayer culture, was used to assure a significant inhibition in the absence of simulated forces. To insure comparability, an aliquot of 1 ml of media without the drug was added to each well in Treatments 2 and 5. After adding the drug or 1 ml of media, the plates from Treatments 5 and 6 were placed back on the baseplate and subjected to the same force profile as before for the remaining 72 hours. Plates from Treatments 2 and 3 (without forces) were placed in the same incubator for the remaining 72 hours.
Cells were trypsinized and counted at the end of day 3 in Treatments 1 and 4, and at the end of day 6 in the other treatments, using a Beckman Coulter Vi-Cell Analyzer (Beckman Coulter, Fullerton, Calif.). To examine changes in morphology, microphotographs of A549 and NCI-H358 cells were taken at the end of Treatments 1, 2, 4 and 5 using an Olympus inverted microscope and a 10× objective.
The standard exponential cell growth model (28) was used to describe the changes in live cell counts after each treatment. […]

A549 cells [2] = experiment: Prototype 96-well plate, MTS assay with and without mechanical forces; assay type: cell-based, human; conditions: A549, drug at IC90, 24 hours, 490 nm
Description: (§2) The prototype plate was read using the Biotek plate reader at the wavelength of 490 nm until the media only wells absorbance reached 1.0. For the +M group plate, 30 ul of MTS was added to the assigned wells and kept in the incubator for the same amount of time that required for the −M group to develop and read at the same wavelength.

H358 cells [3] = experiment: as above; assay type: cell-based, human; conditions: drug at IC90, 24 hours, 490 nm
Description: as §2

[4] = test system: cells in a static monolayer culture; experiment: IC90 in static monolayer culture (tested concentration); assay type: cell-based; conditions: concentration that inhibits the growth of 90% of the cells in a static monolayer culture
Description: Table 1 includes a list of investigated chemotherapeutic drugs, their mechanisms of action and the tested concentrations.
as §1

A549 cells [5] = test system: A549 cells
Description: as §3
In a parallel experiments, the cells were treated with anti-tumor drug after 72 hours of initial seeding (after 48 hours of mechanical stretching). The drug was dissolved in dimethyl sulfoxide (DMSO) at stock concentration and added to the respective media. […] The IC90 concentrations of the drugs were then added to prototype plate.
as §4
In order to quantify viability, 6 wells per treatment group for ViCell counter and 6 wells per condition for MTS were assigned to determine the cell viability. Using Vi-Cell counter, assigned wells were filled with extra 210 μl of media to keep the volume constant in all the wells. Media from the assigned wells were transferred into a 24-well plate, and the well location was recorded. About 50 μl of trypLE was added to each well and allowed to trypsinize for a maximum of ten minutes. A small amount of media from the 24-well plate was transferred back into corresponding wells of the prototype plate to collect detached cells.
Media and cells were transferred back into the corresponding well of the 24-well plate. All wells were brought to a final volume of 1.25 mL with PBS and mixed well. About 1 ml of this cell suspension was transferred to ViCell counter to determine the number of viable cells.

Compound: CC(=O)O[C@H]1C(=O)[C@@]2(C)[C@H]([C@H](OC(=O)c3ccccc3)[C@]3(O)C[C@H](OC(=O)[C@H](O)[C@@H](NC(=O)c4ccccc4)c4ccccc4)C(C)=C1C3(C)C)[C@]1(OC(C)=O)CO[C@@H]1C[C@@H]2O [Paclitaxel]
- Effect of mechanical forces on viable cell count / cytotoxicity (H358 cells [1]; 24 hours drug exposure, prototype 96-well plate): remained unaffected
- Viable Cell Count after 24 hours of drug exposure, With forces (Ef) (H358 cells [1]; drug at IC90, 24 hours, mechanical forces): 9687.5
- Viable Cell Count after 24 hours of drug exposure, Without forces (E) (H358 cells [1]; drug at IC90, 24 hours, no forces): 21250.0
- Growth Rates, With forces (NCI-H358 cells; drug at IC90 for 3 days, 20% maximum strain, 15 cycles/minute): −0.276 per day
- Growth Rates, Without forces (NCI-H358 cells; drug at IC90 for 3 days, no forces): −0.005 per day
- Effectiveness of The Drug, Without forces (E) (NCI-H358 cells; percentage reduction in live cell counts, 3-day drug exposure at IC90, no forces): 70.5%
- Effectiveness of The Drug, With forces (Ef) (NCI-H358 cells; percentage reduction in live cell counts, 3-day drug exposure at IC90, simulated forces): 66.8%
- MTS absorbance after 24 hours of drug exposure, With forces (Ef) (A549 cells [2]; mechanical forces): 0.293
- MTS absorbance after 24 hours of drug exposure, Without forces (E) (A549 cells [2]; no forces): 0.567
- MTS absorbance after 24 hours of drug exposure, With forces (Ef) (H358 cells [3]; mechanical forces): 0.345
- MTS absorbance after 24 hours of drug exposure, Without forces (E) (H358 cells [3]; no forces): 0.522
- IC90 [4]: 0.05 µM
- Effect of mechanical forces on viable cell count / cytotoxicity (A549 cells [5]): Statistically significant reduction
